Measured values reported in article PMC6225126, “Inhibitory Effects of Bioassay-Guided Isolation of Anti-Glycation Components from Taraxacum coreanum and Simultaneous Quantification” (Molecules : A Journal of Synthetic Chemistry and Natural …, 2018).
≈ marks a conversion by molar mass, not a printed value. Read-outs that look alike come from different tables or passages of the source.

What was measured:
[1] = tested on: advanced glycation end-product (AGE) formation in BSA/glucose system; assay: Inhibition of AGE formation in BSA-glucose system (fluorescence); assay type: biochemical, bovine
Procedure: Inhibition of AGE formation in BSA-glucose system was determined using the spectrophotometric method described previously. All test samples were dissolved in 10% DMSO. […] This mixture was incubated at 60 °C for 2 days. […] We used AG as a positive control. Three replicate samples were run for each set. The inhibitory activity on AGE formation was calculated using the following formula: {(Ac − As)/Ac} × 100, where Ac is fluorescence of the control, and As is the fluorescence of the sample.

[2] = tested on: advanced glycation end-product (AGE) formation in BSA/MGO system; assay: Inhibition of AGE formation in BSA-MGO system (fluorescence); assay type: biochemical, bovine; details: BSA 1 mg/mL, 7 mM MGO, 60 °C, 2 days, mean ± SD, n = 3; for IC50: isolated compounds
Procedure: The inhibitory effect on protein glycation induced by MGO (40% aqueous solution) and the main reactive intermediate compound formed in Maillard reaction were evaluated. All test samples were dissolved in 10% DMSO. […] This mixture was incubated at 60 °C for 2 days. […] We used AG as a positive control. Three replicate samples were run for each set. The inhibitory activity was calculated using the same equation applied in BSA-glucose assay.

[3] = target: T1, α-glucosidase from Saccharomyces cerevisiae (Saccharomyces cerevisiae, UniProt P53341); assay: biochemical; assay type: biochemical
T1 construct: purchased Sigma-Aldrich Chemical Company (St. Louis, MO, USA)
Procedure: Methanol (MeOH), ethanol (EtOH), Hx, DCM, EA, BuOH, and distilled water were used for extraction, fractionation, and open column chromatography. Sephadex LH-20 (25–100 μm; Pharmacia, Stockolm, Sweden), MCI CHP 20P (Supelco, St. Louis, MO, USA), and ODS gel (400–500 mesh; Waters, Milford, MA, USA) were used for open column chromatography. Dimethyl sulfoxide-d6 (DMSO-d6) and methanol-d4 (CD3OD) were used as solvents for NMR analysis. Molecular weight was determined by using ultrahigh performance liquid chromatography and high-resolution mass spectrometry (UHPLC-HRMS) coupled with electrospray ionization hybrid linear trap-quadruple-Orbitrap MS (ESI/LTQ-Orbitrap) using an Ultimate 3000 RSLC (Thermo, Darmstadt, Germany). ^1H-nuclear magnetic resonance (NMR) spectra were recorded at 600 MHz and ^13C-NMR spectra were recorded at 150 MHz on a JEOL spectrometer. The chemical shifts are expressed in parts per million (ppm) on the δ scale and as coupling constants (J) in Hertz. […] A Waters Kromasil C18 (4.6 × 250 mm, 5 μm) column was used as the separation column. HPLC-grade solvents, such as MeOH and distilled water (H2O), were purchased from J. T. Baker® (Phillipsburg, PA, USA). HPLC-grade phosphoric acid was obtained from DEAJUNG Chemical (Siheung, Gyeonggi, Korea).
This assay was performed using a 96-well microplate reader and a spectrophotometer. […] A chromogenic substance was used for quantification purposes. After the addition of mixture solution to each well, 10 mM phosphate buffer (20 µL, pH 6.8) containing 0.2 U/mL α-glucosidase was added. This mixture was incubated at 37 °C for 15 min. The reaction was stopped by adding 80 µL of 0.2 mol/L sodium carbonate solution. […] Three replicate samples were run for each set. The inhibitory activity was calculated using the equation applied in BSA-glucose assay, but absorbance was measured instead of fluorescence.

[4] = isolated compounds, BSA 10 mg/mL, 0.4 M D-fructose and D-glucose, 60 °C, 2 days, mean ± SD, n = 3, read-out: IC50 BSA/Glucose (AGE formation)
[5] = isolated compounds, 2.5 mM p-NPG, pH 6.8, 37 °C, 15 min, mean ± SD, n = 3, read-out: IC50 α-Glucosidase
[6] = isolated compounds, read-out: IC50 α-glucosidase activity
[7] = isolated compounds, 2.5 mM p-NPG, pH 6.8, 37 °C, 15 min, mean ± SD, n = 3

T1 sequence (P53341 whole entry): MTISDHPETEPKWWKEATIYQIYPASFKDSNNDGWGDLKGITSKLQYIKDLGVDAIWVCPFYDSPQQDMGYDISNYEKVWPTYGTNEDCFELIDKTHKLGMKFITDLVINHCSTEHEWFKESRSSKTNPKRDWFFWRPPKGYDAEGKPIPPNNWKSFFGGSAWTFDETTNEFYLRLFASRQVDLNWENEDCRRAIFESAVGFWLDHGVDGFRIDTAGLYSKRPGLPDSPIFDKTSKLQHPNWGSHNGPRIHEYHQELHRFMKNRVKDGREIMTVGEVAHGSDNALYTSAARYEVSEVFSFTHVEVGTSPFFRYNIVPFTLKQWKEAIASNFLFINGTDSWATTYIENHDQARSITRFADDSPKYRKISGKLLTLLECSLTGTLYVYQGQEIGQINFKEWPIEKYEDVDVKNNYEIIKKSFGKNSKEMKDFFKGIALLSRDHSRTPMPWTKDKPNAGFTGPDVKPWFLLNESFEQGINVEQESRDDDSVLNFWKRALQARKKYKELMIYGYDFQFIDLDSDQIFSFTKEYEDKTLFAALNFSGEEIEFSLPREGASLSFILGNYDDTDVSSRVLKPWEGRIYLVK

Row | Compound | IC50 [1, 4] [µM] | IC50 [2] [µM] | further results
1 | O=c1cc(-c2ccc(O)c(O)c2)oc2cc(OC3OC(CO)C(O)C(O)C3O)cc(O)c12 (stereo not drawn) [Compound 2, luteolin-7-glucoside] | 123 ± 2.02 | 108 ± 8.14 | IC50 [3]: 1460 ± 162 µM
2 | O=C(O)/C=C/c1ccc(O)c(O)c1 [Compound 7, caffeic acid] | 324 ± 8.29 | 79.7 ± 23.4 | IC50 [3, 5]: 5130 ± 804 µM
3 | O=c1cc(-c2ccc(OC3OC(CO)C(O)C(O)C3O)c(O)c2)oc2cc(O)cc(O)c12 (stereo not drawn) [Compound 3, luteolin-4′-glucoside] | 423 ± 18 | 90.8 ± 21.7 | IC50 ([1]; compound 3, unit as printed in running text b17, read-out: IC50 AGE formation in BSA-glucose system): 423 ± 18 µM; IC50 [3, 6]: 598 ± 147 µM
4 | O=c1cc(-c2cc(O)c(O)cc2OC2OCC(O)C(O)C2O)oc2cc(OC3OC(CO)C(O)C(O)C3O)cc(O)c12 (stereo not drawn) [Compound 5, isoetin-7-glucoside-2′-xyloside] | 268 ± 3.41 | 130 ± 28.3 | IC50 α-Glucosidase [3, 7]: no inhibitory activity
5 | 1-caffeoylglycerol [Compound 8] | 307 ± 10.2 | 152 ± 65.4 | IC50 [3, 5]: 2951 ± 3.94 µM; IC50 [3, 6]: 2951 ± 3.94 µM
6 | O=C(/C=C/c1ccc(O)c(O)c1)O[C@@H]1C[C@](O)(C(=O)O)C[C@@H](O)[C@H]1O [Compound 10, chlorogenic acid] | – | 138 ± 1.91 | –
7 | CC1OC(OCC2OC(Oc3cc(O)c4c(=O)cc(-c5ccc(O)c(O)c5)oc4c3)C(O)C(O)C2O)C(O)C(O)C1O (stereo not drawn) [Compound 4, luteolin-7-rutinoside] | 253 | 136 ± 2.64 | IC50 [3, 6]: 671 ± 50.8 µM
8 | O=c1cc(-c2ccc(O)c(O)c2)oc2cc(O)cc(O)c12 [Compound 1, luteolin] | 236 ± 9.11 | 66.1 ± 17.1 | IC50 α-Glucosidase [3, 7]: no inhibitory activity
9 | N=C(N)NN [AMG, aminoguanidine, reference compound] | 602 ± 50.4 | 295 ± 42.7 | IC50 BSA/Glucose (AGE formation) ([1]; extracts and fractions, BSA 10 mg/mL, 0.4 M D-fructose and D-glucose, 60 °C, 2 days, mean ± SD, n = 3): 218.57 ± 24.38 µg/mL (≈ 2950 µM); IC50 BSA/MGO (AGE formation) ([2]; extracts and fractions): 67.51 ± 5.27 µg/mL (≈ 911 µM)
10 | O=c1cc(-c2cc(O)c(O)cc2OC2OCC(O)C(O)C2O)oc2cc(OC3OC(CO)C(O)C(O)C3O)cc(O)c12 (stereo not drawn) [Compound 6, isoetin-7-glucoside-2′-arabinoside] | 238 ± 13.8 | 148 ± 36.3 | IC50 α-Glucosidase [3, 7]: no inhibitory activity
11 | chicoric acid [Compound 11] | 64.7 ± 16.7 | 141 ± 8.76 | –
